Results: patent US10285938B2 (ISSAR Pharmaceutical, priority 2015, dated 2019)
Where two headings read alike, the source gives them in different places. No end group written: not given here.

Assays:
[1] = test system: partial thickness burns
Description: Patients of either gender with partial thickness burns referred to a tertiary referral center Number of Subjects Enrolled: 160
Multi-center, double-blind, randomized parallel design study in 200 patients of partial thickness burns • 2. […] Participants satisfying the inclusion criteria were hospitalized for the study duration and were randomized in a 1:1 ratio to receive either SSD 1% or XYLENTRA®. Randomization was done specific for each center. Allocation concealment was maintained. The drugs were topically administered once daily for 4 weeks or until complete wound healing, whichever was earlier. The patients were discharged only after complete healing of wound and recovery from other secondary effects of burns. A follow up was done on the 3rd month to record the frequency of scars^10, keloids or contracture formation. • b. […] Either sex • 2. Age 18-60 years • 3. Those diagnosed with partial thickness thermal burns as per clinically • 4. Total surface area of the burn 10-20% as per Wallace rule of nine • 5. Willing to give written informed consent. • 6. Females of child-bearing potential with a negative urine pregnancy test on Day 1 • 7. […]
Safety was measured by pretreatment and post treatment biochemical investigations (Hematological variables) and physical examination. Subjects were thoroughly monitored for adverse effects.

[2] = test system: Pseudomonas aeroginosa MTCC 741; format: cell-based
Description: Whereas, 100% killing of Pseudomonas aeroginosa was observed on exposure to the test compound for 1 hr at pH 8.4 and an exposure of 4 hrs was required for 100% killing at pH 7.2.

[3] = human, in vivo
Description: There was an absence of any symptoms or signs of toxicity at the evaluation site and considered a measure of primary efficacy/tolerability was established in this study. […] Treatment Groups (2% and 4%) were similar in efficacy/tolerability and safety parameters studied.

[4] = subacute toxicity study in rabbits; format: in vivo
[5] = test system: Staphylococcus aureus MTCC 96; format: cell-based
[6] = subacute toxicity study in rats; format: in vivo
[7] = test system: burn wound healing; set-up: species or system human; details: in vivo
Description: None of the XYLENTRA® treated volunteers developed any adverse reaction.

Q: With FAKKFAKKFAKFAKKFAKFAFAF [XYLENTRA®] as the sequence, how does the “serious adverse events and deaths” value ([1]; Phase III) read?
A: No serious adverse events and no deaths

Q: What about the “nature of treatment emergent adverse events” value ([1]; mostly skin related disorders) of the same sequence?
A: mild

Q: What about the “killing of Pseudomonas aeroginosa” value ([2]; MTCC 741, 1 h, pH 8.4) of the same sequence?
A: 100%

Q: And the “killing of Pseudomonas aeroginosa” value ([2]; MTCC 741, 4 h, pH 7.2)?
A: 100%

Q: What about the “mild redness and itching” value [3] of the same sequence?
A: 2/24

Q: And the safety of cream [3]?
A: safe

Q: What about the “systemic absorption (pharmacokinetic data by HPLC)” value [3] of the same sequence?
A: no systemic absorption

Q: And the mortality [4]?
A: No mortality

Q: What about the “abnormalities in physical, physiological, biochemical and histo-pathological parameters” value ([4]; application of the peptide) of the same sequence?
A: No abnormalities

Q: What about the “killing of Staphylococcus aureus” value ([5]; MTCC 96, 1 h, 1 μM, pH 7.2) of the same sequence?
A: 100%

Q: And the “killing of Staphylococcus aureus” value ([5]; MTCC 96, 1 h, 5 μM, pH 7.2)?
A: 100%

Q: And the “killing of Staphylococcus aureus” value ([5]; MTCC 96, 4 h, pH 8.4)?
A: 100%

Q: And the mortality [6]?
A: No mortality

Q: And the “abnormalities in physical, physiological, biochemical and histo-pathological parameters” value ([6]; application of the peptide)?
A: No abnormalities

Q: What about the “systemic absorption (pharmacokinetic data)” value [7] of the same sequence?
A: absence of systemic absorption

Q: And the “volunteers who developed any adverse reaction” value [7]?
A: None
